Assay results from ChEMBL document CHEMBL3886716, “Methods of modulating the activity of the MC5 receptor and treatment of conditions related to this receptor” (2016).

Biological target: Melanocortin receptor 5 (Homo sapiens, UniProt P33032)
Assay: Radioligand Binding Assay: Assessments of compound binding to human MC5R (hMC5R)) by displacement of an 125I-labeled NDP-MSH receptor ligand peptide were performed essentially as described in the data sheets produced by Perkin Elmer to accompany their frozen hMC5R membranes (Perkin Elmer catalog number RBXMC5M400UA). [125I] NDP-MSH: Radiolabeled in House and Purified by HPLC: Na125I (0.5 mCi, 17.4 Ci/mg) was added to 50 μL sodium phosphate (50 mM, pH 7.4) in an eppendorf tube precoated with IODOGEN. After incubation for 10 mins the phosphate buffer containing the iodine was added to NDP-MSH (10 μl at 1 mg/mL) in a separate eppendorf tube. This was incubated for a further 10 mins. The iodinated NDP-MSH was purified by HPLC on a Zorbax SB 300 column using solvent A: 0.05% TFA and solvent B: 90% acetonitrile 0.045% TFA with a linear gradient, 0-67% B over 60 mins. The 125I NDP-MSH eluted at 52 mins after the unlabeled starting material (48 min) and was counted and stored in the freezer. […] Incubation buffer: 25 mM HEPES-KOH (pH 7.0), 1.5 mM CaCl2, 1 mM MgSO4, 0.1 M NaCl, 1 mM 1,10-phenanthroline, and 1 Complete™ protease inhibitor tablet/100 mL (Roche, catalog number 1873580). Perkin Elmer frozen hMC5 membranes: catalog number RBXMC5M400UA, 0.4 mL/vial; 400 microassays/vial, 0.78 mg/mL protein concentration. Vials of frozen membranes were thawed rapidly immediately before use, diluted with binding buffer and vortexed. Resuspended membranes were kept on ice until they were added to the wells of the plate. Assays were performed in 96 well polypropylene plates. […] This was incubated for 1 hr at 37° C.

Sequence of Melanocortin receptor 5 (P33032 whole entry): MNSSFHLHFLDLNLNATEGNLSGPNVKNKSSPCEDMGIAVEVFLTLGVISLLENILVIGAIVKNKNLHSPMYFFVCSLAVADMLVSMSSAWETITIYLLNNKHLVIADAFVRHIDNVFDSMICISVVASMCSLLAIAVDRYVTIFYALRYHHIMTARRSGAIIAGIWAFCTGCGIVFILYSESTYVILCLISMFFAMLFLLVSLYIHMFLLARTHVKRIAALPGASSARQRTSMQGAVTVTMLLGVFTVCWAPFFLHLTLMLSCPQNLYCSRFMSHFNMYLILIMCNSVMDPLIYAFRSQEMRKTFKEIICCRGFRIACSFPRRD

Structure (SMILES)	IC50 [nM]
O=C(/C=C/c1ccc(Cl)cc1)NC[C@@H]1CCN(CC(c2ccccc2)c2ccccc2)C(=O)[C@H](CC2CCCCC2)N1	< 1000
N=C(N)NCCC[C@@H]1N[C@H](CNC(=O)/C=C/c2ccc(Cl)cc2)CCN(CC(c2ccccc2)c2ccccc2)C1=O	< 100
N=C(N)NCCC[C@@H]1N[C@H](CNC(=O)c2ccc3cc(O)ccc3c2)CCN(CC(c2ccccc2)c2ccccc2)C1=O	< 100
N=C(N)NCCC[C@@H]1N[C@H](CNC(=O)c2ccc(Oc3ccccc3)cc2)CCN(CC(c2ccccc2)c2ccccc2)C1=O	< 1000
N=C(N)NCCC[C@@H]1N[C@H](CNC(=O)c2cccc(Oc3ccccc3)c2)CCN(CC(c2ccccc2)c2ccccc2)C1=O	< 100
N=C(N)NCCC[C@@H]1N[C@H](CNC(=O)c2ccc3ccccc3c2)CCN(CCc2ccc(Cl)c(Cl)c2)C1=O	< 10000
N=C(N)NCCC[C@@H]1N[C@H](CNC(=O)c2ccc3ccccc3c2)CCN(CCc2ccc(Cl)cc2Cl)C1=O	< 1000
